Like-named read-outs stand apart in the source and are kept apart here.
Columns and labels:
[1] = target: T1, amino-acid transporter AAP2 (Arabidopsis thaliana, UniProt Q38967); test: Uptake of radiolabeled L-proline by yeast mutant 22457d-AAP2 expressing the plant amino-acid transporter; type: cell-based; conditions: read-out: Activity relative to control [%]
T1 construct: expressed in transfected cells; host or cells: Saccharomyces cerevisiae mutant 22574d (also printed 22457d)
T1 sequence (Q38967 1-493): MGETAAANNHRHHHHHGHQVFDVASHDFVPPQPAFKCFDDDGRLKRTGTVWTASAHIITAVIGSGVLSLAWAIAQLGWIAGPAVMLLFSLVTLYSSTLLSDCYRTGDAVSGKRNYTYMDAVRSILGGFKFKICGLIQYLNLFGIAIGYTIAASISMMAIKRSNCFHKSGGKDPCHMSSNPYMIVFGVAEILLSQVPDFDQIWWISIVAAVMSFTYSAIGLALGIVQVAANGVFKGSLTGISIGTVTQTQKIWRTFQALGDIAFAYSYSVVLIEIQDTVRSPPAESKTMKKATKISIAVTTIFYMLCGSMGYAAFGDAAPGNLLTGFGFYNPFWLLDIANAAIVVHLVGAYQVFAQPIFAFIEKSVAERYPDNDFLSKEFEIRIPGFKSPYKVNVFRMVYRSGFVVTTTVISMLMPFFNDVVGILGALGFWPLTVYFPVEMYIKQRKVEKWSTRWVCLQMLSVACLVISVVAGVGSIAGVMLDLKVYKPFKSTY
Experimental: Transporter investigations are carried out on the yeast mutant 22574d (Jauniaux & Grenson, Eur. J. Biochem. 190: 39-44, 1990), which harbors a mutation in the gene for amino-acid permease, and on the yeast mutant JT 16 (Tanaka and Fink, Gene 38: 205-214, 1985) which is incapable of histidine uptake, for identification of inhibitors of plant amino-acid transporters. These mutants are transformed with cDNA sequences which code for plant amino-acid transporters and lead to expression of functional transporters in the yeast cells. The cDNA sequences are cDNA sequences which code for the amino-acid transporters AAP1 and AAP2 from Arabidopsis thaliana (Frommer et al., 1993, Proc. Natl. Acad. Sci. USA 90: 5944-5948; Kwart et al., 1993, Plant J. 4:993-1002). For the measurements, cells of these mutants are cultured in minimal medium (NAAG+5 mmol/l proline) at 28° C. and harvested in the logarithmic phase (OD600 =0.6). The cells are spun down in a centrifuge at 4000 rpm and 4 degrees Celsius for 10 minutes and washed 2× with AUB buffer (modified AAB buffer, Ljungdahl et al.). The cell concentration is adjusted to an OD600 of 25 in AUB buffer.
100 μl portions of the cell suspension are mixed with 100 μl of a 1 mmol/l L-proline solution (18.5 kBq of L-[14C]-proline) and various concentrations of the appropriate substance to be investigated. After 20, 60, 120 and 180 seconds, a 50 μl aliquot is removed, diluted in 4 ml -of ice-cold AUB buffer and filtered through glass fever [sic] filter. In order to remove nonspecifically bound L-[14C]-proline, the cells are washed 2× with 4 ml of ice-cold water each time. The radioactivity retained on the glass filter is then measured in a liquid scintillation counter. The radioactivity reflects the amount of radiolabeled proline taken up by the cells. Uptake of radiolabeled proline without addition of a potential inhibitor is determined as one control. Cells of each of the mutants 22574d and JY 16 which have not been transformed with cDNA sequences coding for plant amino-acid transporters are used as further control. Results of measurements of this type on the mutants 22457d-AAP2 which expresses the amino-acid transporter AAP2 from Arabisopsis [sic] thaliana are shown in the following table.
For the investigations, yeast cells of the strain 22457d were transformed with a cDNA sequence which codes for the amino-acid transporter AAP2, and the uptake of radiolabeled proline in the presence of various substances was determined. The various substances tested, their concentration, and the activity of the transporter, shown as percentage activity of the control with which no potential inhibitors were added, are indicated.

[2] = target: T2, ammonium transporter AMT1 (Arabidopsis thaliana, UniProt P54144); test: cell-based
T2 construct: expressed in transfected cells; host or cells: Saccharomyces cerevisiae 26972c (mutations in MEP1 and MEP2)
T2 sequence (P54144 1-501): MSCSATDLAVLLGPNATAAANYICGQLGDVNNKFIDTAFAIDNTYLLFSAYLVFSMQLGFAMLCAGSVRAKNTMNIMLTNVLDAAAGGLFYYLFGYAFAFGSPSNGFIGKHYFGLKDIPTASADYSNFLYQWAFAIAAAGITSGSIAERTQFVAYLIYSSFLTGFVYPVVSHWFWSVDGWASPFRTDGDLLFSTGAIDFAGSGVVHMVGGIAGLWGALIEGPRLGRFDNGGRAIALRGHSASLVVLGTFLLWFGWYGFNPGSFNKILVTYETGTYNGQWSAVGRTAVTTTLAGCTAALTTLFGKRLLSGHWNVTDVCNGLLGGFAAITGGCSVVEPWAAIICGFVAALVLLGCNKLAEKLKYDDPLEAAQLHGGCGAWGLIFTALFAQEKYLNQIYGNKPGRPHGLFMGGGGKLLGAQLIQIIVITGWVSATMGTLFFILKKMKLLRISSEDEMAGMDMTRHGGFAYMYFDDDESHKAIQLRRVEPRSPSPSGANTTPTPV
Experimental: The measurements of transport identify inhibitors of plant ammonium transporters are carried out with the structural analog methylamine because radiolabeled ammonium is not commercially obtainable.
The yeast cells are transformed by standard methods with cDNA sequences which code for an ammonium transporter from plants and which permit expression of a functional transporter in the yeast cells. […] The cells are cultured in NAAG-medium (2% glucose, 1.7 g/l yeast nitrogen-base w/o amino acids and ammonium sulfate (Difco), supplemented with 500 μg/ml L-proline) at 28 degrees Celsius, and harvested in the logarithmic phase (OD660.=0.6). The cells are then spun down in a centrifuge at 4000 rpm and 4 degrees Celsius for 10 minutes, washed twice with 20 mM sodium phosphate buffer, pH 7, and taken up in the same buffer to an 0D660 of 8. 200 μl aliquot fractions of the cell suspension are taken. 5 minutes before the actual measurement,the yeasts are activated by addition of 100 mM glucose and incubated at 30 degrees Celsius. To start the reaction, 100 μl of the cell suspension are added to 100 µl of reaction mixture (20 mM Na phosphate buffer, pH7; 18.5 kBq of [^14 C]-methylamine (NEN); 100 M methylamine; substance to be tested depending on the experiment (see FIG. 4)). In each case 10, 60, 120 and 180 seconds after starting the reaction, 50 μl aliquots are taken, added to 4 ml of ice-cold 5 mM methylamine solution and filtered on glass fibre filters. After the filters have been washed with a further 8 ml of a methylamine solution, the radioactivity on the filters is subsequently determined in a liquid scintillation counter. Inhibitors are added 60 seconds before adding the glucose.
The uptake of radiolabeled methylamine without addition of a potential inhibitor is determined as one control.

plants = test: Herbicidal activity on plants; type: in vivo; conditions: whole plants; result in words
[3] = tested on: sucrose transporter P62 (StSUT1); test: Activation of sucrose transport by preincubation of the yeast cells; type: cell-based, Solanum tuberosum; conditions: for Effect on sucrose transport as a function of concentration: preincubation of yeast cells, result in words
Experimental: The transport of sucrose by the sucrose transporter P62 (StSUT1) from Solanum tuberosum can be increased by previous energizing of the yeast cells by incubation in glucose, stachyose and adenine. The same increase in transport activity is achieved by reducing the pH to pH 3.8 in the measurement. The measurement of transport to determine the activation takes place as described in Example 3 but the cells are incubated before the actual measurement not in 10 mM glucose for 5 min but in solutions of various concentrations of glucose, stachyose and adenine for 5 min. Yeast cells which are not incubated in solutions of these substances before the measurement act as control. The following table indicates the extent of activation of sucrose transport with various concentrations of glucose, stachyose and adenine compared with the control.

[4] = target: T3, sucrose transporter P62 (StSUT1) (Solanum tuberosum, UniProt Q43653); test: [14C]-sucrose uptake by yeast strain SUSY-7-P62 (StSUT1) expressing the potato sucrose transporter; type: cell-based; conditions: pH 3.8, read-out: Activity relative to the control [%]
T3 construct: whole-cell [14C]-sucrose uptake; no tag or borders given
T3 sequence (Q43653 1-516): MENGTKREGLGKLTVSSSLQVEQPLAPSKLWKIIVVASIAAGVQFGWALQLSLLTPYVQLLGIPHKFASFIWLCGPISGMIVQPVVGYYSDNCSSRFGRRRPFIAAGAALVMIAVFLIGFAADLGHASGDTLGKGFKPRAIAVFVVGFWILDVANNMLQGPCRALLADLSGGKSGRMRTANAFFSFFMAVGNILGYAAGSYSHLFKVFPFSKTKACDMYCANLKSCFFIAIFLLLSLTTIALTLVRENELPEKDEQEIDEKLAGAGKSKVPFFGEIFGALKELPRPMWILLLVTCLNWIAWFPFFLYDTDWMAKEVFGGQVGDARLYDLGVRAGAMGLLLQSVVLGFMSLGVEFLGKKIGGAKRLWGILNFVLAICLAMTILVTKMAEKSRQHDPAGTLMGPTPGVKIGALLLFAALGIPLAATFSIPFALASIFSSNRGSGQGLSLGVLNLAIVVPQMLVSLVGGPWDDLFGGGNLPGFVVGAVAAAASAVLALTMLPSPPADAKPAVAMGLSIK
Excerpt: Yeast cells of the strain SUSY7 (Riesmeier et al., 1992, EMBO J. 11: 4705-4713) are used to identify substances which have an inhibitory effect on sucrose transporters from potato. Cells of this strain are transformed with a cDNA sequence which codes for the sucrose transporter P62 (StSUT1) from potato (WO 94/00574, Riesmeier et al., 1993, Plant Cell 5:1591-1598) and which ensures expression of a functional transporter in the cells. The resulting yeast strain was called SUSY-7-P62 (StSUT1). The yeast cells are cultured in minimal medium (SD +2% (w/v) sucrose, pH 3.8) at 28° C. and harvested in the logarithmic phase (OD600 =0.6). The cells are spun down at 4000 rpm for 10 minutes and washed twice with SD medium. A cell concentration of c=50 g/l in SD medium is adjusted according to the wet weight of the cells, and 200 Al aliquot fractions are taken. Before the actual reaction, the cells are incubated in 10 mM glucose for 5 min and adjusted to pH 3.8 with MES buffer. The reaction is started by adding 200 Al of a 0.2 mmol/l [14C]-sucrose solution (3 mCi/mmol) in SD medium (pH 3.8). After 20, 60, 120, 180 and 240 seconds, 70 μl portions of the suspension are removed and pipetted into 4 ml of ice-cold water in order to stop the reaction. The cells are filtered off on glass fiber filters and washed twice with ice-cold water. The radioactivity on the filters is subsequently determined in a liquid scintillation counter. The substances to be tested are added 30 seconds before addition of the sucrose. The uptake of radiolabeled sucrose without addition of a potential inhibitor is determined as one control. Cells of the strain SUSY7 which are not transformed with cDNA sequences coding for a sucrose transporter from potato are employed as further control.
The various tested substances, their concentration and the activity of the transporter, shown as percentage activity of the control in which no potential inhibitors were added, are indicated.

[5] = sucrose transport after 5 min preincubation with the substance at c1 [0.2 mol/l], 200000 µM
[6] = sucrose transport after 5 min preincubation with the substance at c2 [2 mmol/l]

## O=C(O)C1CCN1 (stereo not shown) [Azetidine-2-carboxylate]
[1]; L-[14C]-proline uptake, tested substance 10 mM
  remaining activity at 10000 µM: 62%

## CN [Methylamine]
[2]; pH 7, [14C]-methylamine uptake, tested substance 500 μM, read-out: Activity relative to the control [%]
  remaining activity at 500 µM: 40%
plants
  Herbicidal activity on plants: herbicidal activity on plants

## OC[C@H]1O[C@H](OC[C@H]2O[C@H](OC[C@H]3O[C@H](O[C@]4(CO)O[C@H](CO)[C@@H](O)[C@@H]4O)[C@H](O)[C@@H](O)[C@@H]3O)[C@H](O)[C@@H](O)[C@H]2O)[C@H](O)[C@@H](O)[C@H]1O [Stachyose]
[3]
  Effect on sucrose transport as a function of concentration: stimulates sucrose transport at low concentrations, while this effect is reversed at high concentrations (c>0.4 mmol/l)
[3]; [5]
  Activity relative to the control [%]: 144 ± 9%
[3]; [6]
  Activity relative to the control [%]: 101 ± 8%

## O=[N+]([O-])c1ccc(O)c([N+](=O)[O-])c1 [DNP]
[1]
  remaining activity at 100 µM: 7.6 ± 1.6%
[4]
  remaining activity at 100 µM: 3%
[2]; pH 7, read-out: Activity relative to the control [%]
  remaining activity at 100 µM: 18%

## Nc1ncnc2nc[nH]c12 [Adenine]
[3]
  Effect on sucrose transport as a function of concentration: linear relation between the adenine concentration and the increase in the sucrose transport rate
[3]; [5]
  Activity relative to the control [%]: 141 ± 5%
[3]; [6]
  Activity relative to the control [%]: 225 ± 6%

## O=C(O)[C@H]1CCCN1 [D-Proline]
[1]
  remaining activity at 10000 µM: 90%
